Measurements published in PubChem BioAssay (NCI).
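Exposure lasted 48 hours, with cells grown in 96-well plates and compounds tested at five concentrations. TGI: concentration producing complete growth inhibition.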

Key:
Experiment in all cases: inhibition of tumour cell growth, NCI panel, 48 h
HOP-92 NSCLC = system: HOP-92 NSCLC
SF-295 CNS = system: SF-295 CNS
UACC-62 melanoma = system: UACC-62 melanoma
UO-31 renal = system: UO-31 renal
MDA-MB-435 = system: MDA-MB-435
SK-OV-3 ovarian = system: SK-OV-3 ovarian
786-0 renal = system: 786-0 renal
CAKI-1 renal = system: CAKI-1 renal
SN12C renal = system: SN12C renal
NCI-H460 lung = system: NCI-H460 lung
HCC-2998 colon = system: HCC-2998 colon
MDA-MB-231 breast = system: MDA-MB-231 breast
IGROV1 ovarian = system: IGROV1 ovarian
MOLT-4 leukemia = system: MOLT-4 leukemia
SK-MEL-5 melanoma = system: SK-MEL-5 melanoma
HOP-62 NSCLC = system: HOP-62 NSCLC
MDA-N = system: MDA-N
U251 CNS = system: U251 CNS
ACHN renal = system: ACHN renal
PC-3 prostate = system: PC-3 prostate
M14 melanoma = system: M14 melanoma
TK-10 renal = system: TK-10 renal
MALME-3M melanoma = system: MALME-3M melanoma
EKVX NSCLC = system: EKVX NSCLC
K-562 leukemia = system: K-562 leukemia
SF-268 CNS = system: SF-268 CNS
HL-60(TB) leukemia = system: HL-60(TB) leukemia
BT-549 breast = system: BT-549 breast
SK-MEL-28 melanoma = system: SK-MEL-28 melanoma
OVCAR-3 ovarian = system: OVCAR-3 ovarian
SK-MEL-2 melanoma = system: SK-MEL-2 melanoma
UACC-257 melanoma = system: UACC-257 melanoma
RXF 393 renal = system: RXF 393 renal
KM12 colon = system: KM12 colon
HCT-116 colon = system: HCT-116 colon
NCI-H226 lung = system: NCI-H226 lung
A498 renal = system: A498 renal
HS 578T breast = system: HS 578T breast
SNB-75 CNS = system: SNB-75 CNS
DU-145 prostate = system: DU-145 prostate
A549 NSCLC = system: A549 NSCLC
COLO 205 colon = system: COLO 205 colon
NCI/ADR-RES ovarian = system: NCI/ADR-RES ovarian
NCI-H23 lung = system: NCI-H23 lung
SR leukemia = system: SR leukemia
T-47D breast = system: T-47D breast
OVCAR-4 ovarian = system: OVCAR-4 ovarian
OVCAR-8 ovarian = system: OVCAR-8 ovarian
RPMI-8226 leukemia = system: RPMI-8226 leukemia
CCRF-CEM leukemia = system: CCRF-CEM leukemia
SF-539 CNS = system: SF-539 CNS
MCF7 breast = system: MCF7 breast
SNB-19 CNS = system: SNB-19 CNS
HT29 colon = system: HT29 colon
OVCAR-5 ovarian = system: OVCAR-5 ovarian
LOX IMVI melanoma = system: LOX IMVI melanoma
HCT-15 colon = system: HCT-15 colon
SW-620 colon = system: SW-620 colon
NCI-H522 lung = system: NCI-H522 lung

OC(c1cc(-c2ccccc2)nc2c1ccc1ccccc12)C1CCCCN1 (stereo not drawn)
TGI (HOP-92 NSCLC): 3.56 µM
TGI (SF-295 CNS): 3.44 µM
TGI (UACC-62 melanoma): 3.46 µM
TGI (UO-31 renal): 2.45 µM
TGI (MDA-MB-435): 3.33 µM
TGI (SK-OV-3 ovarian): 3.32 µM
TGI (786-0 renal): 3.04 µM
TGI (CAKI-1 renal): 4.04 µM
TGI (SN12C renal): 3.1 µM
TGI (NCI-H460 lung): 3.62 µM
TGI (HCC-2998 colon): 0.586 µM
TGI (MDA-MB-231 breast): 3.36 µM
TGI (IGROV1 ovarian): 2.98 µM
TGI (MOLT-4 leukemia): > 100 µM
TGI (SK-MEL-5 melanoma): 8.55 µM
TGI (HOP-62 NSCLC): 3.24 µM
TGI (MDA-N): 2.97 µM
TGI (U251 CNS): 3.15 µM
TGI (ACHN renal): 3.26 µM
TGI (PC-3 prostate): 3.07 µM
TGI (M14 melanoma): 3.22 µM
TGI (TK-10 renal): 3.5 µM
TGI (MALME-3M melanoma): 3.19 µM
TGI (EKVX NSCLC): 5.4 µM
TGI (K-562 leukemia): > 100 µM
TGI (SF-268 CNS): 2.88 µM
TGI (HL-60(TB) leukemia): 1.13 µM
TGI (BT-549 breast): 25 µM
TGI (SK-MEL-28 melanoma): 3.18 µM
TGI (OVCAR-3 ovarian): 3.29 µM
TGI (SK-MEL-2 melanoma): 3.17 µM
TGI (UACC-257 melanoma): 3.41 µM
TGI (RXF 393 renal): 3.03 µM
TGI (KM12 colon): 3.35 µM
TGI (HCT-116 colon): 2.92 µM
TGI (NCI-H226 lung): > 100 µM
TGI (A498 renal): 3.76 µM
TGI (HS 578T breast): 3.53 µM
TGI (SNB-75 CNS): 3.43 µM
TGI (DU-145 prostate): 3.45 µM

CC(=O)O[C@H]1C(=O)N(c2cc3c4ccccc4ccc3c3ccccc23)[C@@H]1c1ccccc1
TGI (A549 NSCLC): 61.6 µM
TGI (HOP-92 NSCLC): 45.7 µM
TGI (SF-295 CNS): 53.5 µM
TGI (UACC-62 melanoma): 24 µM
TGI (UO-31 renal): 28 µM
TGI (MDA-MB-435): 5.68 µM
TGI (SK-OV-3 ovarian): 35.8 µM
TGI (COLO 205 colon): 18.1 µM
TGI (NCI/ADR-RES ovarian): 29.5 µM
TGI (786-0 renal): 15.9 µM
TGI (CAKI-1 renal): 35.5 µM
TGI (SN12C renal): 26.7 µM
TGI (NCI-H460 lung): > 100 µM
TGI (NCI-H23 lung): 37.3 µM
TGI (HCC-2998 colon): 26.8 µM
TGI (SR leukemia): 40.3 µM
TGI (MDA-MB-231 breast): 48.2 µM
TGI (T-47D breast): 98.6 µM
TGI (IGROV1 ovarian): 8.27 µM
TGI (MOLT-4 leukemia): > 100 µM
TGI (SK-MEL-5 melanoma): 67.1 µM
TGI (OVCAR-4 ovarian): 49.5 µM
TGI (OVCAR-8 ovarian): 32.1 µM
TGI (HOP-62 NSCLC): 32.9 µM
TGI (RPMI-8226 leukemia): 6.77 µM
TGI (MDA-N): > 100 µM
TGI (CCRF-CEM leukemia): > 100 µM
TGI (U251 CNS): > 100 µM
TGI (ACHN renal): 89.2 µM
TGI (PC-3 prostate): 65.3 µM
TGI (SF-539 CNS): 13.2 µM
TGI (M14 melanoma): 23.1 µM
TGI (TK-10 renal): 47.1 µM
TGI (MALME-3M melanoma): 54.1 µM
TGI (MCF7 breast): > 100 µM
TGI (EKVX NSCLC): 74.2 µM
TGI (SNB-19 CNS): > 100 µM
TGI (K-562 leukemia): > 100 µM
TGI (SF-268 CNS): > 100 µM
TGI (SK-MEL-28 melanoma): 66.4 µM
TGI (HT29 colon): 6.98 µM
TGI (OVCAR-3 ovarian): 4.86 µM
TGI (SK-MEL-2 melanoma): 9.4 µM
TGI (OVCAR-5 ovarian): > 100 µM
TGI (UACC-257 melanoma): > 100 µM
TGI (RXF 393 renal): 8.95 µM
TGI (LOX IMVI melanoma): 33.1 µM
TGI (KM12 colon): 27.1 µM
TGI (HCT-15 colon): > 100 µM
TGI (HCT-116 colon): 14.4 µM
TGI (NCI-H226 lung): 40.3 µM
TGI (A498 renal): 89.6 µM
TGI (HS 578T breast): 25.1 µM
TGI (SNB-75 CNS): 7.2 µM
TGI (DU-145 prostate): 43.9 µM

CCCC(=O)Nc1cc(/C=C/C(=O)N2CC(CCl)c3ccc(N)cc32)n(C)c1 (stereo not drawn)
TGI (A549 NSCLC): > 100 µM
TGI (UACC-62 melanoma): 0.304 µM
TGI (SK-OV-3 ovarian): > 100 µM
TGI (COLO 205 colon): 0.3 µM
TGI (786-0 renal): 2.92 µM
TGI (CAKI-1 renal): 0.385 µM
TGI (SN12C renal): 6.62 µM
TGI (NCI-H460 lung): 0.796 µM
TGI (NCI-H23 lung): 0.809 µM
TGI (HCC-2998 colon): 0.34 µM
TGI (SR leukemia): 0.594 µM
TGI (T-47D breast): 0.601 µM
TGI (OVCAR-4 ovarian): 0.697 µM
TGI (HOP-62 NSCLC): > 100 µM
TGI (SW-620 colon): > 100 µM
TGI (MDA-N): 0.675 µM
TGI (U251 CNS): > 40.9 µM
TGI (PC-3 prostate): > 100 µM
TGI (SF-539 CNS): 0.429 µM
TGI (M14 melanoma): > 100 µM
TGI (TK-10 renal): 0.471 µM
TGI (MALME-3M melanoma): 0.507 µM
TGI (SNB-19 CNS): > 43.2 µM
TGI (K-562 leukemia): > 100 µM
TGI (SF-268 CNS): > 100 µM
TGI (BT-549 breast): 0.813 µM
TGI (HT29 colon): > 100 µM
TGI (NCI-H522 lung): 0.0834 µM
TGI (OVCAR-3 ovarian): > 100 µM
TGI (SK-MEL-2 melanoma): 0.572 µM
TGI (OVCAR-5 ovarian): > 100 µM
TGI (LOX IMVI melanoma): > 100 µM
TGI (HCT-15 colon): > 100 µM
TGI (HCT-116 colon): 14.1 µM
TGI (NCI-H226 lung): > 100 µM
TGI (A498 renal): 0.0523 µM
TGI (DU-145 prostate): 2.77 µM

COC1=CC(=O)C2=C(C1=O)[C@H]1CC[C@]3(C)[C@@H](OC(C)=O)CC[C@H]3[C@@H]1CC2
TGI (A549 NSCLC): > 100 µM
TGI (HOP-92 NSCLC): 24 µM
TGI (SF-295 CNS): > 100 µM
TGI (UO-31 renal): > 100 µM
TGI (MDA-MB-435): 38.2 µM
TGI (SK-OV-3 ovarian): > 100 µM
TGI (COLO 205 colon): > 100 µM
TGI (NCI/ADR-RES ovarian): > 100 µM
TGI (786-0 renal): > 100 µM
TGI (CAKI-1 renal): > 100 µM
TGI (SN12C renal): > 100 µM
TGI (NCI-H460 lung): > 100 µM
TGI (NCI-H23 lung): > 100 µM
TGI (SR leukemia): > 100 µM
TGI (MDA-MB-231 breast): 35.3 µM
TGI (T-47D breast): 49.4 µM
TGI (IGROV1 ovarian): > 100 µM
TGI (MOLT-4 leukemia): 84 µM
TGI (SK-MEL-5 melanoma): 48.8 µM
TGI (OVCAR-4 ovarian): 30.6 µM
TGI (OVCAR-8 ovarian): 53.9 µM
TGI (HOP-62 NSCLC): > 100 µM
TGI (SW-620 colon): > 100 µM
TGI (RPMI-8226 leukemia): > 100 µM
TGI (MDA-N): > 100 µM
TGI (CCRF-CEM leukemia): > 100 µM
TGI (U251 CNS): > 100 µM
TGI (ACHN renal): > 100 µM
TGI (PC-3 prostate): > 100 µM
TGI (SF-539 CNS): > 100 µM
TGI (M14 melanoma): > 100 µM
TGI (TK-10 renal): > 100 µM
TGI (MALME-3M melanoma): 59 µM
TGI (EKVX NSCLC): 28.5 µM
TGI (SNB-19 CNS): > 100 µM
TGI (K-562 leukemia): > 100 µM
TGI (SF-268 CNS): > 100 µM
TGI (HL-60(TB) leukemia): 40.4 µM
TGI (BT-549 breast): > 100 µM
TGI (SK-MEL-28 melanoma): > 100 µM
TGI (HT29 colon): 48.5 µM
TGI (NCI-H522 lung): > 100 µM
TGI (OVCAR-3 ovarian): > 100 µM
TGI (SK-MEL-2 melanoma): > 100 µM
TGI (OVCAR-5 ovarian): > 100 µM
TGI (UACC-257 melanoma): > 100 µM
TGI (RXF 393 renal): > 100 µM
TGI (LOX IMVI melanoma): 36.7 µM
TGI (KM12 colon): > 100 µM
TGI (HCT-15 colon): > 100 µM
TGI (HCT-116 colon): > 100 µM
TGI (NCI-H226 lung): > 100 µM
TGI (A498 renal): > 100 µM
TGI (HS 578T breast): > 100 µM
TGI (SNB-75 CNS): > 100 µM
TGI (DU-145 prostate): > 100 µM
